Patent publication US20070099841A1, “Prodrugs of T3 and T4 with enhanced bioavailability” (New River Pharmaceuticals Inc., priority 2005, published 2007)
“And” between values parts separate entries of the source, which are not always exact repeats. Equal values may be shown once. Read-outs that look alike come from different tables or passages of the source.

Experiments:
[1] = design: species or system Sprague-Dawley rats; conditions: rat, in vivo
Protocol: Compounds were tested in Sprague-dawley rats (˜250 g). Defined doses were delivered as oral solutions in 0.5% sodium bicarbonate buffer with T3 sodium salt containing 12 mcgT3/kg or triiodothyronine composition containing the equivalent amount of T3. Rats were dosed immediately following 0 hour serum collection. Serum was collected from rats at 2, 4, 6, 9, 12 and 24 hours after capsule delivery. Total serum T3 concentrations were determined by ELISA using a commercially available kit (Total Triiodothyronine (total T3) ELISA KIT, product #1700, ALPHA DIAGNOSTIC, San Antonio, Tex.). Total serum T4 concentrations were determined by ELISA using a commercially available kit (Total Thyronine (Total T4) ELISA KIT, product #1100, ALPHA DIAGNOSTIC, San Antonio, Tex.).
The general procedures described above were employed for the experimental data described below. These procedures are subject to minor variations in timing and weight of rats, etc.
(§1) T3 sodium, G-T3, V-T3, I-T3, Y-T3, A2-T3, P2-T3, or F2-T3 were administered at equimolar doses to Sprague-Dawley rats (12 μg/kg T3; HED˜120 μg T3 sodium; n=6, per group) that were hypothyroid due to removal of the thyroid gland approximately one week prior to evaluation. Serum was collected at 0 (pre-dose), 1, 2, 4, 6, 8 and 12 hours post-dose and analyzed for total T3 and TSH by chemiluminescent immunoassay (Immulite CIA). […] At 1 hour post dose the mean level of Total T3 was 327.3, 429.5, 432.7, 403.3, 431, and 433.1 ng/ml for G-T3, V-T3, I-T3, Y-T3, P2-T3, and F2-T3 dosed animals respectively as compared to 577 ng/ml for T3 sodium dosed animals. Applicants note that some variation in these values may be present as with A2-T3 (FIGS. 15 and 16).

TSH = assay: Serum TSH after oral administration to hypothyroid rats (chemiluminescent immunoassay); format: in vivo, Sprague-Dawley rats; conditions: for TSH, mean: mean n=6, oral 12 μg/kg T3; for Individual animal TSH: individual animals 1-6, oral 12 μg/kg T3, hydrochloride salt
Protocol: as §1

| Total T3 AUC, % (of T3) [1] [%] | Total T3Δ dAUC, % (of T3) [1] [%] | Variability of T3 absorption compared with T3 sodium [1] | mean level of Total T3 at 1 hour post dose ([1]; po) [ng/mL] | SMILES | TSH, mean (TSH; 0 h (pre-dose)) [μIU] | TSH, mean (TSH; 1 h) [μIU] | TSH, mean (TSH; 2 h) [μIU] | TSH, mean (TSH; 4 h) [μIU] | TSH, mean (TSH; 6 h) [μIU] | TSH, mean (TSH; 8 h) [μIU] | TSH, mean (TSH; 12 h) [μIU] | TSH levels in response to administration (TSH; oral 12 μg/kg T3) | further results |
| --- | --- | --- | --- | --- | --- | --- | --- | --- | --- | --- | --- | --- | --- |
| 104.4 | 113.4 |  |  | C[C@H](N)C(=O)N[C@@H](C)C(=O)N[C@@H](Cc1cc(I)c(Oc2ccc(O)c(I)c2)c(I)c1)C(=O)O [A2-T3] | 2.459 | 2.11 | 0.889 | 0.292 | 0.174 | 0.182 | 0.381 | decreased rapidly |  |
| 88.3 | 94.7 | decreased variability of T3 absorption | 433.1 | N[C@@H](Cc1ccccc1)C(=O)N[C@@H](Cc1ccccc1)C(=O)N[C@@H](Cc1cc(I)c(Oc2ccc(O)c(I)c2)c(I)c1)C(=O)O [F2-T3] | 3.035 | 2.192 | 1.364 | 0.405 | 0.246 | 0.242 | 0.757 | decreased rapidly |  |
|  |  |  |  | Cl.NCC(=O)NC(Cc1cc(I)c(Oc2ccc(O)c(I)c2)c(I)c1)C(=O)O (centres unmarked) [G-T3, 2-(2-aminoacetoamido)-3-(4-(4-hydroxy-3-iodophenoxy)-3,5-diiodophenyl) propanoic acid, hydrochloride salt] | 2.021 | 2.098 | 1.289 | 0.292 | 0.162 | 0.151 | 0.427 |  | Tmax, % T3 ([1]; Sprague-Dawley): 125%; Total T3 AUC, % (of T3) ([1]; Sprague-Dawley): 88.1%; Total T3 AUClast, % T3 ([1]; Sprague-Dawley): 89%; Total T3 Cmax, % T3 ([1]; Sprague-Dawley): 79%; Total T3Δ AUClast, % T3 ([1]; Sprague-Dawley): 89%; Total T3Δ Cmax, % T3 ([1]; Sprague-Dawley): 78%; Total T3Δ dAUC, % (of T3) ([1]; Sprague-Dawley): 90.9%; Variability of T3 absorption compared with T3 sodium ([1]; Sprague-Dawley): decreased variability of T3 absorption; Release / absorption of T3 compared with T3 sodium ([1]; Sprague-Dawley, po): delayed release of T3; mean level of Total T3 at 1 hour post dose ([1]; Sprague-Dawley, po, 1 h): 327.3 ng/mL; Individual animal TSH (TSH; 0 h (pre-dose)): 1.680 μIU and 2.584 μIU and 2.304 μIU and 1.956 μIU and 1.860 μIU and 1.740 μIU; Individual animal TSH (TSH; 1 h): 2.660 μIU and 2.564 μIU and 2.392 μIU and 1.960 μIU and 1.612 μIU and 1.400 μIU; Individual animal TSH (TSH; 2 h): 1.340 μIU and 1.472 μIU and 1.648 μIU and 1.160 μIU and 1.104 μIU and 1.008 μIU; Individual animal TSH (TSH; 4 h): 0.364 μIU and 0.352 μIU and 0.296 μIU and 0.216 μIU and 0.276 μIU and 0.248 μIU; Individual animal TSH (TSH; 6 h): 0.232 μIU and 0.172 μIU and 0.152 μIU and 0.112 μIU and 0.205 μIU and 0.100 μIU; Individual animal TSH (TSH; 8 h): 0.232 μIU and 0.172 μIU and 0.136 μIU and 0.124 μIU and 0.168 μIU and 0.076 μIU; Individual animal TSH (TSH; 12 h): 0.540 μIU and 0.612 μIU and 0.224 μIU and 0.548 μIU and 0.268 μIU and 0.372 μIU; TSH levels in response to administration (TSH; oral 12 μg/kg T3, hydrochloride salt): decreased rapidly |
| 96.6 | 100.8 | decreased variability of T3 absorption | 432.7 | CC[C@H](C)[C@H](N)C(=O)N[C@@H](Cc1cc(I)c(Oc2ccc(O)c(I)c2)c(I)c1)C(=O)O [I-T3] | 2.331 | 2.218 | 1.203 | 0.351 | 0.169 | 0.131 | 0.271 | decreased rapidly |  |
